Assay results from the Deep4Chem optical property database.
Several values for one entry are separate records, joined by “and”; a condition that tells them apart may be missing. Identical values can stand only once. Each block holds one molecule with its values, some of them ahead of it.

Test: photoluminescence quantum yield (fraction); solvent given as SMILES

SMILES: CC1=CC(C)=[N+]2C1=C(c1ccc(-c3ccc(O)cc3)s1)c1c(C)cc(C)n1[B-]2(F)F
photoluminescence quantum yield (in Cc1ccccc1): 0.069

SMILES: COC1(OC)C2(Cl)c3nc4cc(-c5cccs5)ccc4nc3C1(Cl)C1C[C@H]3[C@@H](CC12)C1(Cl)c2nc4ccc(-c5cccs5)cc4nc2C3(Cl)C1(OC)OC (stereo partly drawn)
photoluminescence quantum yield (in CC#N): 0.57
photoluminescence quantum yield (in CCOC(C)=O): 0.22
photoluminescence quantum yield (in CO): 0.49
photoluminescence quantum yield (in Cc1ccccc1): 0.13
photoluminescence quantum yield (in ClC(Cl)Cl): 0.35
photoluminescence quantum yield (in ClCCl): 0.33

SMILES: CCCCCCC1(CCCCCC)c2cc(-c3nc(-c4ccc5c(c4)C(CCCCCC)(CCCCCC)c4cc(N6c7ccccc7Oc7ccccc76)ccc4-5)nc(-c4ccc5c(c4)C(CCCCCC)(CCCCCC)c4cc(N6c7ccccc7Oc7ccccc76)ccc4-5)n3)ccc2-c2ccc(N3c4ccccc4Oc4ccccc43)cc21
photoluminescence quantum yield (in C1CCOC1): 0.02
photoluminescence quantum yield (in CCCCCC): 0.52
photoluminescence quantum yield (in Cc1ccccc1): 0.45
photoluminescence quantum yield (in ClCCl): 0.01

SMILES: CC(C)(C)c1ccc2c(c1)c1cc(C(C)(C)C)ccc1n2-c1cccc2c1Oc1c(-c3nc(-c4ccccc4)nc(-c4ccccc4)n3)cccc1C2(C)C
photoluminescence quantum yield (in Cc1ccccc1): 0.06

SMILES: COc1ccc(C2=[N+]3C(=Nc4c(-c5cc(OC)c(OC)c(OC)c5)c(Br)c(-c5ccc(OC)cc5)n4[B-]3(F)F)C(c3cc(OC)c(OC)c(OC)c3)=C2Br)cc1
photoluminescence quantum yield (in Cc1ccccc1): 0.002

SMILES: CC[N+]1(CC)CN2C(=N1)C(C(=O)O)=Cc1ccccc12
photoluminescence quantum yield (in CN(C)C=O): 0.006
photoluminescence quantum yield (in O): 0.531

SMILES: COc1ccc2cc3c(C)cc(=O)oc3cc2c1
photoluminescence quantum yield (in CC#N): 0.0071
photoluminescence quantum yield (in CCCCCC): 0
photoluminescence quantum yield (in CCO): 0.13
photoluminescence quantum yield (in CCOC(C)=O): 0.0006
photoluminescence quantum yield (in CO): 0.21
photoluminescence quantum yield (in ClC(Cl)Cl): 0.011
photoluminescence quantum yield (in OCC(F)(F)F): 0.33

SMILES: CCCCCCOc1ccc(C#Cc2ccc(C#CC#Cc3ccc(C#Cc4ccc(OCCCCCC)c(OCCCCCC)c4)c4nsnc34)c3nsnc23)cc1OCCCCCC
photoluminescence quantum yield (in CN(C)C=O): 0.006
photoluminescence quantum yield (in COc1ccccc1): 0.43
photoluminescence quantum yield (in Cc1ccccc1): 0.58
photoluminescence quantum yield (in ClC(Cl)Cl): 0.49
photoluminescence quantum yield (in ClCCCl): 0.27
photoluminescence quantum yield (in ClCCl): 0.36

SMILES: COc1ccc(-c2oc3cccc4c5c(-c6ccc(OC)cc6)/c(=N/S(=O)(=O)C(F)(F)F)oc6cccc(c2c34)c65)cc1
photoluminescence quantum yield (in ClC(Cl)Cl): 0.96

SMILES: Oc1cccc(O)c1-c1c2ccc(=[N+]3CCCCC3)cc-2oc2cc(N3CCCCC3)ccc12
photoluminescence quantum yield (in CCO): 0.26

SMILES: O=P1(c2ccccc2)C(c2ccc(N(c3ccccc3)c3ccccc3)cc2)=Cc2ccccc21 (stereo not drawn)
photoluminescence quantum yield (in ClCCl): 0.81

SMILES: c1ccc(-c2c3c(c(-c4ccccc4)c4cc5ccccc5cc24)Cc2c(c(-c4ccccc4)c4cc5ccccc5cc4c2-c2ccccc2)C3)cc1
photoluminescence quantum yield (in CC#N): 0.27
photoluminescence quantum yield (in CCCCCC): 0.28
photoluminescence quantum yield (in CO): 0.3
photoluminescence quantum yield (in Cc1ccccc1): 0.61
photoluminescence quantum yield (in ClCCl): 0.21

SMILES: COC(=O)/C(C#N)=c1/cc/c(=c2/cc/c(=C(\C#N)C(=O)OC)s2)s1
photoluminescence quantum yield (in Cc1ccccc1): 0.0035

SMILES: COC(=O)C[C@H](NC(=O)[C@H](Cc1c[nH]c2ccccc12)NC(=O)OC(C)(C)C)C(=O)OC
photoluminescence quantum yield (in CC#N): 0.36
photoluminescence quantum yield (in CCOC(C)=O): 0.39
photoluminescence quantum yield (in CO): 0.27

SMILES: C(#Cc1ccccc1)C(C#Cc1ccccc1)=Cc1ccc2cc(C=C(C#Cc3ccccc3)C#Cc3ccccc3)ccc2c1
photoluminescence quantum yield (in ClC(Cl)Cl): 0.49

SMILES: CCN(CC)c1ccc2c(c1)oc(=O)c1cnc3c(cnn3-c3ccccc3)c12
photoluminescence quantum yield (in C1CCCCC1): 0.926
photoluminescence quantum yield (in CCOC(C)=O): 0.885
photoluminescence quantum yield (in CN(C)C=O): 0.296
photoluminescence quantum yield (in CO): 0.222
photoluminescence quantum yield (in ClCCl): 0.916

SMILES: CC1=CC(C)=[N+]2C1=Cc1c3ccccc3c(-c3[nH]c(C)cc3C)n1[B-]2(F)F
photoluminescence quantum yield (in ClCCl): 0.61

SMILES: COc1ccc(N2c3cc(OC)ccc3N=c3cc4c(cc32)=Nc2cc(C(C)(C)C)cc(C(C)(C)C)c2O4)cc1
photoluminescence quantum yield (in CCCCCC): 0.31

SMILES: O=C([O-])c1c(Cl)c(Cl)c(Cl)c(Cl)c1-c1c2cc(Cl)c(=O)c(Cl)c-2oc2c(Cl)c(O)c(Cl)cc12
photoluminescence quantum yield (in O): 0.628

SMILES: C(=C\c1ccc(-c2nc3c4cccnc4c4ncccc4c3[nH]2)cc1)/c1ccncc1
photoluminescence quantum yield (in C1CCOC1): 0.54
photoluminescence quantum yield (in CC#N): 0.32
photoluminescence quantum yield (in CO): 0.19
photoluminescence quantum yield (in ClCCl): 0.48

SMILES: CCOC(=O)c1cc(C)n2nc(-c3ccccc3)ccc12
photoluminescence quantum yield (in CCCCCC): 0.434

SMILES: c1cc2c3c(c1)-c1ccc4c5c(ccc(c15)B3c1ccc3c5c(ccc-2c15)CC3)CC4
photoluminescence quantum yield (in Cc1ccccc1): 0.79

SMILES: CC1=[N+]2C(=C(c3ccc(N4CCCCC4)cc3)c3ccc(C)n3[B-]2(F)F)C=C1
photoluminescence quantum yield (in C1CCCCC1): 0.33
photoluminescence quantum yield (in C1CCOC1): 0.01 and 0.008
photoluminescence quantum yield (in CC#N): 0.003 and 0.002
photoluminescence quantum yield (in CC(=O)C(C)(C)C): 0.004
photoluminescence quantum yield (in CC(C)=O): 0.002
photoluminescence quantum yield (in CCCCCC): 0.341
photoluminescence quantum yield (in CCOC(C)=O): 0.006 and 0.005
photoluminescence quantum yield (in CO): 0.005 and 0.003
photoluminescence quantum yield (in Cc1ccccc1): 0.13
photoluminescence quantum yield (in ClC(Cl)Cl): 0.077

SMILES: COc1cccc(OC)c1-c1c2ccc(=[N+]3CCN(C(=O)OC(C)(C)C)CC3)cc-2oc2cc(N3CCN(C(=O)OC(C)(C)C)CC3)ccc12
photoluminescence quantum yield (in ClCCl): 0.49

SMILES: CC[N+]1(CC)CN2C(=N1)C(C(=O)O)=Cc1cc(OC)ccc12
photoluminescence quantum yield (in O): 0.509

SMILES: c1ccc(-c2nc(-c3ccc(N4c5ccccc5Sc5ccccc54)cc3)nn2-c2ccc(N3c4ccccc4Sc4ccccc43)cc2)nc1
photoluminescence quantum yield (in ClCCl): 0.0129

SMILES: CC(C)(C)NC(=O)c1cc2ccccc2c2ccc3c4ccccc4c4ccccc4c3c12
photoluminescence quantum yield (in ClCCl): 0.06

SMILES: Cc1ccc(C2=C3C=CC(C#Cc4ccccc4)=[N+]3[B-](F)(F)n3c(Cl)ccc32)cc1
photoluminescence quantum yield (in C1CCCCC1): 1
photoluminescence quantum yield (in C1CCOC1): 0.84
photoluminescence quantum yield (in C1COCCO1): 0.97
photoluminescence quantum yield (in CCOC(C)=O): 0.83
photoluminescence quantum yield (in CO): 0.98
photoluminescence quantum yield (in Cc1ccccc1): 0.91
photoluminescence quantum yield (in ClC(Cl)Cl): 0.95

SMILES: Cc1ccc(-c2cnc3nn4ccccc4c3n2)cc1
photoluminescence quantum yield (in C1CCOC1): 0.26

SMILES: c1ccc(-c2ccc(-c3ccc(N(c4ccccc4)c4ccccc4)cc3)c3nsnc23)cc1
photoluminescence quantum yield (in C1CCOC1): 0.105
photoluminescence quantum yield (in CC(C)=O): 0.01
photoluminescence quantum yield (in CCCCCC): 0.492
photoluminescence quantum yield (in CCOCC): 0.201

SMILES: CCCCCCCCCCCCCCCCCCN1C(=O)c2ccc3c4ccc5c6c(ccc(c7ccc(c2c37)C1=O)c64)C(=O)N(CCCCCCCCCCCCCCCCCC)C5=O
photoluminescence quantum yield (in CN(C)C=O): 0.8

SMILES: CC(C)(C)c1ccc(C(C)(C)C)c(N2C(=O)c3cccc4c(-c5ccc(-c6ccc([N+](=O)[O-])cc6)s5)ccc(c34)C2=O)c1
photoluminescence quantum yield (in CO): 0.03
photoluminescence quantum yield (in CS(C)=O): 0.17
photoluminescence quantum yield (in Cc1ccccc1): 0.07

SMILES: F[B-]1(F)n2c(Oc3ccccc3)c(Cl)c3c2C(=C2C(Br)=C(Cl)C(Oc4ccccc4)=[N+]21)Oc1ccccc1-3
photoluminescence quantum yield (in ClCCl): 0.99

SMILES: CC1=C(c2ccc(N(c3ccccc3)c3ccccc3)cc2)C(C)=[N+]2C1=C(c1c(-c3ccccn3)nc3ccccn13)c1c(C)cc(C)n1[B-]2(F)F
photoluminescence quantum yield (in ClCCl): 0.0038

SMILES: Fc1ccc(N(c2ccc(F)cc2)c2ccc3c4cccc5c(N(c6ccc(F)cc6)c6ccc(F)cc6)ccc(c6cccc2c63)c54)cc1
photoluminescence quantum yield (in ClCCl): 0.64

SMILES: CCCCCCCCN1c2ccccc2Sc2cc(/C=C/c3ccc(N(c4ccc(/C=C/c5ccc6c(c5)Sc5ccccc5N6CCCCCCCC)cc4)c4ccc(/C=C/c5ccc(/C=C/c6ccc(N(c7ccc(/C=C/c8ccc9c(c8)Sc8ccccc8N9CCCCCCCC)cc7)c7ccc(/C=C/c8ccc9c(c8)Sc8ccccc8N9CCCCCCCC)cc7)cc6)c6nsnc56)cc4)cc3)ccc21
photoluminescence quantum yield (in C1CCOC1): 0.024
photoluminescence quantum yield (in CCOC(C)=O): 0.125
photoluminescence quantum yield (in CN(C)C=O): 0.001
photoluminescence quantum yield (in Cc1ccccc1): 0.278
photoluminescence quantum yield (in ClC(Cl)Cl): 0.061
photoluminescence quantum yield (in ClCCl): 0.003

Continued, values first:

photoluminescence quantum yield (in CCCO): 0.53
SMILES: CCOC(=O)c1ccc2c(c1)n(C)c1c3ccc(C(=O)OCC)cc3n(C)c21

photoluminescence quantum yield (in CC#N): 0.88
SMILES: O=c1oc2ccccc2cc1C#Cc1ccccc1

photoluminescence quantum yield (in OCC(O)CO): 0.026
SMILES: C[n+]1ccc(/C=C/c2ccc(N(c3ccccc3)c3ccc(/C=C/c4cc[n+](C)cn4)cc3)cc2)nc1

photoluminescence quantum yield (in CCO): 0.016
photoluminescence quantum yield (in O): 0.022
SMILES: CN(C)c1ccc2c(-c3cc(N)ccc3C(=O)[O-])c3ccc(=[N+](C)C)cc-3oc2c1

photoluminescence quantum yield (in C1CCOC1): 0.63
SMILES: CC(C)(C)c1ccc2c(c1)c1cc(C(C)(C)C)cc3c1n2B1c2c-3cccc2-c2cc(C(C)(C)C)cc3c4cc(C(C)(C)C)ccc4n1c23

photoluminescence quantum yield (in ClC(Cl)Cl): 0.89
SMILES: CCCCCCCCC1(CCCCCCCC)c2cc(-c3ccc([Si](C)(C)C)cc3)ccc2-c2ccc(-c3ccc([Si](C)(C)C)cc3)cc21

photoluminescence quantum yield (in CC#N): 0.18
SMILES: Cc1cc(C)c2c(c1)nc1c(=O)n(C)c(=O)nc-1n2C

photoluminescence quantum yield (in C1CCOC1): 0.5
SMILES: CC(=O)c1ccc(-c2cnc3nn4ccccc4c3n2)cc1

photoluminescence quantum yield (in C1CCOC1): 0.41
photoluminescence quantum yield (in ClCCl): 0.82
SMILES: COc1ccc(C2=Cc3ccccc3P2(=O)c2ccccc2)cc1 (stereo not drawn)

photoluminescence quantum yield (in CN(C)C=O): 0.82
SMILES: Cc1cc(-c2ccc(-c3nc4ccccc4[nH]3)cc2)ccc1-c1ccc(-c2nc3ccccc3[nH]2)cc1

photoluminescence quantum yield (in C1CCCCC1): 1
SMILES: CCCC1(CCC)c2cc(-c3ccc(OC)cc3)ccc2-c2ccc(-c3ccc4c(c3)C(CCC)(CCC)c3cc(-c5ccc(OC)cc5)ccc3-4)cc21

photoluminescence quantum yield (in CC#N): 0.014
SMILES: Cc1ccc(-[c+]2c3ccccc3oc3ccccc32)cc1

photoluminescence quantum yield (in CC#N): 0.017
SMILES: N#Cc1ccc(-c2pc3ccccc3s2)cc1 (stereo not drawn)

photoluminescence quantum yield (in ClCCl): 0.3
SMILES: CC(C)c1cccc(C(C)C)c1N1C(=O)c2ccc3c(-c4ccc(C(=O)O)cc4)c4c5ccc6c7c(ccc(c(-c8ccc(C(=O)O)cc8)c4c4ccc(c2c34)C1=O)c75)C(=O)N(c1c(C(C)C)cccc1C(C)C)C6=O

photoluminescence quantum yield (in ClC(Cl)Cl): 0.155
SMILES: CCCCCCCCCCCCSc1cc2c3c(ccc4c5c(SCCCCCCCCCCCC)cc6c7c(ccc(c1c34)c75)C(=O)N(C1CCCCC1)C6=O)C(=O)N(C1CCCCC1)C2=O

photoluminescence quantum yield (in ClC(Cl)Cl): 0.89
SMILES: CCCCCCCCOc1ccc(-c2c3c4n(c(-c5ccc(OCCCCCCCC)cc5)c3c3n2[B-](F)(F)[n+]2ccccc2N=3)[B-](F)(F)[n+]2ccccc2N=4)cc1

photoluminescence quantum yield (in ClC(Cl)Cl): 0.688
SMILES: Cc1cc(C2=Cc3cccc[n+]3[B-](F)(F)O2)ccc1N(C)C
